{"source": "patent US7923465B2", "about": "“Cannabinoid receptor ligands, pharmaceutical compositions containing them, and process for their preparation” (priority 2005, dated 2011)", "biological_target": "hCB1 (Homo sapiens, UniProt P21554)", "sequence (P21554 whole entry)": "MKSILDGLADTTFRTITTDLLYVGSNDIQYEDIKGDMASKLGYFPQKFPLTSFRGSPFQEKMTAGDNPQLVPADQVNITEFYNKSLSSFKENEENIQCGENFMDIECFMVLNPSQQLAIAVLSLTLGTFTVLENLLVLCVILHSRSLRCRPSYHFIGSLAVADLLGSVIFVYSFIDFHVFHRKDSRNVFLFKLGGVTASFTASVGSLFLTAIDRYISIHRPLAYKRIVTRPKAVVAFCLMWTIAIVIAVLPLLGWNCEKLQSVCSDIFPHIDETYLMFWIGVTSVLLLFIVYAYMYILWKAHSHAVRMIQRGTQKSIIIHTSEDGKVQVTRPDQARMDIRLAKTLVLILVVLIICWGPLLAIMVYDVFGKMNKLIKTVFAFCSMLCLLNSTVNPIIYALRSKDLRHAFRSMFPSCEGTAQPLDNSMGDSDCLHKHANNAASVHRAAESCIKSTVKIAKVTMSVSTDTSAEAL", "experiment": "In vitro binding assay using hCB1-CHO membranes, [3H]-CP-55,940 displacement (Protocol II)", "parameters": "expressed in transfected cells; host or cells: CHO (hCB1-CHO, generated in-house)", "in_short": "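Incubated 1 h at 37° C, stopped by rapid vacuum filtration on PEI-precoated GF/B filters, bound radioactivity counted by liquid scintillation.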"}
{"compound": "O=C(NN1CCCCC1)c1nn(-c2ccc(Cl)cc2)c2c1C1CC3CC(C1)CC2C3", "note": "[Example 140, N(7)-Piperidino-5-(4′-chlorophenyl)-5,6-diazatetracyclo[7.3.1.1^3,11.0^4,8]tetradeca-4(8)-6-diene-7-carboxamide]", "values": [{"measurement": "% Displacement Protocol II", "value": 57.85, "unit": "%"}]}
